Our source for the melting point values is a melting point compilation (Tetko et al.; mined from patent text by program, amines drawn as free bases though some values may be those of a salt).

As to `CCCCCCCCCCCC(C(=O)NN)C(C(=O)Nc1c(OC)cc(OC)cc1OC)c1ccccc1` (stereo not given), the melting point (usually the temperature, or range, at which the solid turns liquid) was in the range of 175 to 180 °C. Regarding `COCCOC1c2ccn3c(Br)c(C)nc3c2N(C(C)=O)C(c2ccccc2)C1OC(=O)C(C)(C)C` (stereo not given), the melting point lay in the range of 166 to 167 °C. In the case of `O=C1NCCN1Cc1cccnc1`, the melting point was in the range of 58 to 86 °C. The compound `CS(=O)(=O)Nc1ccccc1OCCCN1CCC(OC(c2ccsc2)c2ccsc2)CC1` yielded a melting point of 92 to 94 °C.

`CC(O)(CCN)C1(F)C=CC(c2ccccc2)=CC1` (stereo not given) returned a melting point of 144 to 146 °C. `COc1cc(C(C)C)c(Oc2cnc(N)nc2N)cc1-c1ncon1` showed a melting point of 135 to 138 °C. In the case of `N#Cc1ccc(-c2cc(F)c(F)c(OC3SCC(O)C(O)C3O)c2)cn1` (stereo not given), the melting point was 173 °C. Then `CCOC(=O)CCc1cc(C(=O)CCC(=O)O)ccc1OC`, with 128 to 129 °C. For the compound `Cc1cc(CCCCCOc2ccc(C#N)cc2)no1`, the melting point fell in the range of 61 to 62 °C. As to `CCCCCCNc1ccc(Oc2ccc3nc(COc4ccc(CC5SC(=O)NC5=O)cc4)n(C)c3c2)cc1` (stereo not given), the melting point fell in the range of 177 to 179 °C. Then `O=C(CCC#Cc1ccccn1)Nc1ccc(F)cc1`, with 190 °C; and `CN(C(=O)NC(=O)c1ccccc1)C(=O)Nc1nc(C(Cl)(Cl)Cl)ns1`, with 70 °C. `CC(C)C1CC(=O)C(C(=O)Nc2ccc(Cl)c(Cl)c2)C(=O)C1` (stereo not given) came in with a melting point of 138 °C. Then `c1ccc2c(c1)CCCC2N1CCCNCC1` (stereo not given), with 107 to 109 °C; and `CCOC(=O)C1=C(C)NC(=S)N(S(C)(=O)=O)C1c1cccc([N+](=O)[O-])c1` (stereo not given), with 161 to 163 °C. In turn, `COc1cccc(C(=O)Nc2ccc(N3CCN(Cc4cccc(C#N)c4)CC3)cc2)c1OCc1ccc(C(F)(F)F)cc1` yielded a melting point of 118 to 120 °C. Regarding `O=C1c2ccc([N+](=O)[O-])cc2C(=O)N1C1CCN(CCc2ccccc2)CC1`, the melting point is 240 to 242 °C. Then `Cn1cccc(N)c1=S`, with 98 to 100 °C; and `CO[C@@H]1CN(Cc2ccccc2)C[C@H]1NC(=O)OC(C)(C)C`, with 44 to 45 °C; and `Cc1c2cc(C(=O)O)[nH]c2cc2c1sc1ccccc12`, with 271 to 272 °C. `CON=CNC(=O)c1ccc(C=NO)cc1C` yielded a melting point of 88 to 91 °C. The same measure for `Cc1[nH]cnc1CCC(=O)N(C)C`: 62 to 64 °C; for `COc1cc(N)c(Cl)cc1C(=O)NC1CCN(C)C1` (stereo not given): 185 to 187 °C. On to `OC(c1ccccc1)(c1ccccc1)c1ccccc1Cl`, for which the melting point worked out at 87 °C. Regarding `CCOC(=O)/C(=N\O[C@@H]1CCCC[C@@H]1C)c1csc(N)n1` (relative stereo), the melting point was in the range of 123 to 126 °C. `CCCCN1CC=C(c2c[nH]c3ccc(NS(C)(=O)=O)cc23)CC1` showed a melting point of 202 to 204 °C. As for `COc1cc(OC)c(F)c(NCc2cnc(SC)nc2NC2CC2)c1F`, the melting point was in the range of 48 to 50 °C. `Cc1ccccc1C(=O)Nc1ccc(C(=O)N2c3ccccc3CCc3ccccc32)cc1` displayed a melting point of 112 to 118 °C. Then `CCCCCCCCCCCCCCCCCCN(C)CC(O)COC(c1ccccc1)(c1ccccc1)c1ccccc1` (stereo not given), with 45 °C; and `CCC=C1Cc2c(c(C)c(C)c3oc(C(=O)O)cc23)C1=O`, with 301 °C; and `c1c2c(cc3c1OCO3)CCNCC2`, with 82 to 84 °C. `CC(C)Oc1ccc(CCCOc2cc(CCC(=O)O)n(Cc3ccccc3)n2)c(Oc2ncc(C(F)(F)F)cc2Cl)c1` yielded a melting point of 99 to 100 °C. As for `CC(=O)Oc1c(C)c(C)c2c(c1C)C(=O)CC(O)(COc1ccc([N+](=O)[O-])cc1)O2` (stereo not given), the melting point is 204 to 207 °C.

Take `CSc1ccc(NC(=O)C2(C)CC2)cc1C(F)(F)F`: the melting point lay in the range of 97 to 98 °C.

The compound `CCOC(=O)Cc1ccc2c(c1)C(O)c1ccccc1O2` (stereo not given) returned a melting point of 214 to 219 °C.

Compound `CCOC(=O)c1cnn(C)c1C(=O)Nc1ccc2nc(-c3cccnc3)nn2c1` returned a melting point of 217 °C. The same measure for `Cc1cc([N+](=O)[O-])c(Cl)c([N+](=O)[O-])c1C(=O)O`: 189 to 192 °C; for `CC(=Cc1ccc(N(C)C)cc1)C(=O)O`: 190 to 194 °C. Regarding `COc1ccc(S(=O)(=O)C2(C(=O)O)CCN(C(C)(C)C)CC2)cc1`, the melting point was determined as 204 °C.

Regarding `CCCCCCCCCCCCCCCCO[C@@H]1CCCO[C@H]1CO` (relative stereo), the melting point lay within 41 to 42 °C. Then `CCCN(CCC)c1ccc(CCC(=O)O)c2c1CCCN2C(=O)OC(C)(C)C`, with 84 to 86 °C; and `Cc1oc(-c2ccc(C(F)(F)F)cc2)nc1-c1ccc(-c2cc(Br)c(OCC(=O)O)c(Br)c2)cc1`, with 165 to 166 °C. As to `CCS(=O)c1cc(C(=O)NCC2CCCN2CC2CC2)c(OC)cc1N` (stereo not given), the melting point lay in the range of 158 to 162 °C. The same measure for `COc1ccc(N2CCN(c3c(C)c(C)c4c(c3C)C(=CCc3ccccc3)C(C)(C)O4)CC2)cc1`: 166 to 167 °C; for `O=C(O)CCCCCCCNS(=O)(=O)c1ccccc1`: 82 to 84 °C; for `O=C1Nc2ccccc2C2(c3ccccc3)OCCN12` (stereo not given): 194 °C. Consider `CC(Cn1nnc2ccccc21)(NC(=O)OC1C2CC3CC(C2)CC1C3)C(=O)NCCc1ccccc1` (stereo not given), for which the melting point lay within 180 to 185 °C.

On to `BrCCCOc1ccc(Oc2ccccc2)cc1`, for which the melting point was in the range of 54 to 55 °C. Compound `CC1Cc2c(Cl)ccc3c(=O)c(C(=O)O)cn1c23` (stereo not given) had a melting point of 288 to 290 °C.

`COc1cc(OC)c(-c2cccs2)cc1/C=C/C(=O)c1ccc(S(=O)(=O)Nc2ccc(F)cn2)cc1`: the melting point lay within 194 to 195 °C. Then `Cc1ccc2cc(CCCc3ccncc3)c(=O)n(-c3cccc([N+](=O)[O-])c3)c2n1`, with 165 to 166 °C; and `O=c1[nH][nH]c(=O)n1-c1ccc(Cl)cc1`, with 234 to 236 °C. The compound `CC(=O)Nc1ccc(C(=O)O)cc1O` gave a melting point of 249 °C.

As for `O=C(O)C1Oc2ccc3c(-c4ccccc4)noc3c2O1` (stereo not given), the melting point is 187 to 190 °C. For `CC(C)[C@H]1C[C@@H]([C@H](CC2CCCCC2)NC(=O)OCc2ccccc2)OC1=O`, the melting point lay in the range of 117 to 118 °C.

The compound `CCNC(=O)NCCSCC(=O)NC/C=C\COc1cccc(CN2CCCCC2)c1` displayed a melting point of 90.2 to 91.2 °C. In turn, `CC(=Cc1c(Cl)cc(N(C)C)cc1Cl)[N+](=O)[O-]` returned a melting point of 105 to 110 °C. With `COC(=O)[C@]1(C)Cc2c([nH]c3ccc(Br)cc23)[C@@H](c2cccc(O)c2)N1` (racemic), the melting point lay within 240 to 241 °C.

The compound `Cc1ncc2cccc(O)c2n1` returned a melting point of 135 to 137 °C. `Cc1ccc(-c2ccnc3c(C(=O)c4cccs4)cnn23)cc1NC(=O)c1ccccc1`: the melting point lay within 216 to 218 °C. The same measure for `O=C(CC1=C(n2nc(-c3c(-c4ccccc4)nn4ccccc34)ccc2=O)CCCC1)N1CCNCC1`: 208 to 209 °C; for `COc1ccc(-c2nc3cc(F)ccc3s2)cc1OC(=O)c1ccccc1`: 160 °C; for `CNC(=O)N(OC)c1ccc(Oc2ccc3sncc3c2)c(Cl)c1`: 128 °C. Consider `CC(C#CC1=C(C)C(O)C(O)C1(C)C)=CCO` (stereo not given), for which the melting point was in the range of 121 to 122 °C. The same measure for `CCOC(=O)c1cc(=O)c2c(OCC(O)COc3cccc(C(F)(F)F)c3)cccc2o1` (stereo not given): 70 to 75 °C.

Compound `COCCCNc1cccc(Oc2ccc(-c3cn(C4CCOC4)c4ncnc(N)c34)cc2)c1C#N` (stereo not given) displayed a melting point of 183 to 184 °C. Then `Cc1ccc(Cn2nnc(C(N)=O)c2N)cc1C(Cl)=C(Cl)Cl`, with 196 to 197 °C. Then `CC(=O)NC1CCCCC1`, with 108 to 109 °C; and `CN(C)C(=O)COC1c2ccccc2CCc2ccccc21`, with 73 to 75 °C; and `COc1ccccc1CNc1nccc2ccccc12`, with 111 to 113 °C. In turn, `CC1(C(=O)Nc2ccc(-n3nc(C(F)(F)F)cc3C(F)(F)F)cc2)CC1` came in with a melting point of 109 to 110 °C. The same measure for `CNS(=O)(=O)c1cc(C(=O)c2c(C)oc3ccccc23)ccc1Cl`: 146 °C; for `COc1nccc(-c2ccc3cc(N(C)C)ccc3c2)c1C#N`: 150 to 151 °C. `CC1(C)OC(C=Cc2ccc(F)cc2)=CC1=O` had a melting point of 55 to 57 °C. Regarding `CON(C)C(=O)c1ccc2nc(Cl)nc(-c3cccc(Cl)c3)c2c1`, the melting point is 110 °C. In turn, `O=C(O)c1ccc(CN(Cc2cc(Br)ccc2OCc2ccccc2)c2ccc(C(=O)O)cc2)cc1` displayed a melting point of 271 °C. `O=C(NCc1ccccn1)OC1Cc2ccccc2N(S(=O)(=O)c2ccc(Cl)cc2)C1` (stereo not given) came in with a melting point of 106 to 110 °C.

In turn, `COc1cc(NS(=O)(=O)c2ccc3c(ccn3C)c2)cc(OC)c1OC` yielded a melting point of 188 to 189 °C. `Cc1noc(NS(=O)(=O)c2ncccc2C(=O)Nc2ccccc2)c1C` registered a melting point of 199 to 200 °C.

Consider `COc1ccc(-c2c(C(=O)CC(C)C)c(CBr)nc3cc(OC)c(OC)cc23)cc1OC`, for which the melting point fell in the range of 159 to 161 °C. Then `C[C@@H](Nc1nnc(-c2ccccc2)c2ccccc12)C1CCCCC1`, with 164 to 167 °C; and `CCCN(CCC)C(=O)COc1nc(-c2ccccc2)nc(C)c1Cl`, with 90 to 91 °C; and `C=CCC1NC(=O)C1C(C)(C)O` (stereo not given), with 144 °C.

Consider `CNC(=S)NCCCc1ncco1`, for which the melting point lay in the range of 43 to 45 °C. Compound `C#C[C@H]1CC[C@H](C(=O)O)CC1` gave a melting point of 161 to 162 °C. The same measure for `CCC(C(=O)N(CC)CC)n1cc(Cl)c(-c2ccccc2)n1` (stereo not given): 47 to 49 °C; for `O=C(O)Cc1ccc2c(c1)C(=O)C(=Cc1ccccc1)C2`: 202 to 204 °C; for `N#Cc1cnc2cc(Cl)c([N+](=O)[O-])cc2c1Nc1ccc(Oc2ccccc2)cc1`: 220 to 222 °C. In turn, `CC(=O)Oc1cc(CNC=C2C(=O)NC(=O)c3ccc(Br)cc32)cc(OC(C)=O)c1` gave a melting point of 257 to 258 °C. `COc1ccc(OC)c2nccnc12` showed a melting point of 145 to 150 °C.
